Assay results as given in patent US12410160B2 (Gilead Sciences, Inc., priority 2021, dated 2025).
Read-outs that look alike come from different tables or passages of the source.

What was measured:
human KHK-C = human KHK-C (Homo sapiens (Human), UniProt P50053); test: KHK Biochemical Assay (IC50), ADP-Glo, KHK-C; settings: average of at least two separate assays
Outline: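 His-tagged enzyme expressed in BL21 (DE3), Ni-NTA purified. Compounds, serially diluted 1:3 in DMSO, pre-incubated 30 min with enzyme in 50 mM Hepes pH 7.4, 140 mM KCl, 5 mM MgCl2, 0.01% Triton-X, then ATP and fructose added; 4 h at room temperature. ADP formation read by ADP-Glo luminescence.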

HepG2 cells = test: F1P Cell-Based Assay (EC50), 13C6-fructose-1-phosphate in HepG2 cells (cell culture medium or 50% human plasma)
Protocol: F1P Cell-Based Assay (EC50)
Compounds were serially diluted (1:3) in DMSO. The LabCyte ECHO Acoustic dispenser system was used to pre-spot the assay plates (Greiner, Catalog #781091) with 400 nL (200-fold final dilution in 80 μL assay volume) of compound. 25,000 cells/well HepG2 cells (ATCC Catalog #HB-8065) were plated in a 40 μL volume/well in DMEM medium with 4.5 g/L glucose, 1× Penicillin-Streptomycin-Glutamine, and 10% FBS, using a BioTEK dispenser in a biological hood and incubated overnight at 37° C., 5% CO2, 90% humidity. 40 μL/well serum free assay medium (for F1P assay in cell culture medium), or 40 μL/well 100% human plasma (for F1P assay in 50% human plasma) were then added to the plates on the following day, and incubated for 1 hour at 37° C., 5% CO2, 90% humidity. ^13C6-labelled fructose (Sigma, Catalog #587621) in sterile PBS was added to the plates at a final concentration of 5 mM. The plates were incubated for 2 hours at 37° C., 5% CO2, 90% humidity. The assay was quenched by washing the cells with sterile PBS and adding 60 μL/well of 80% (v/v) methanol, 2 mM ammonium acetate and 2.5 μM Crotonyl-CoA, using a BioTEK washer-dispenser system. The plates were then sealed and stored in the −80° C. freezer until ready for RapidFire readout. ^13C6-fructose-1-phosphate in individual wells was quantified using the Agilent RapidFire High-Throughput MS system in negative mode using a […]. Mobile Phase 1 consisted of 20 mM ammonium acetate with 0.05% acetic acid in 100% methanol. Mobile phase 2 consisted of 5 mM octylamine in water (pH adjusted to 5 using acetic acid). F1P signals in individual wells were normalized by crotonyl CoA internal control.

[1] = Homo sapiens, HepG2, HepG2 cells, 50% human plasma, read-out: F1P 50% HP EC50
[2] = Homo sapiens, HepG2, read-out: F1P 10% FBS EC50, HepG2 cells, cell culture medium (10% FBS)
[3] = HepG2 cells, 50% human plasma, read-out: F1P 50% HP EC50
[4] = read-out: F1P 10% FBS EC50, HepG2 cells, cell culture medium (10% FBS)

Chain of human KHK-C (P50053 whole entry): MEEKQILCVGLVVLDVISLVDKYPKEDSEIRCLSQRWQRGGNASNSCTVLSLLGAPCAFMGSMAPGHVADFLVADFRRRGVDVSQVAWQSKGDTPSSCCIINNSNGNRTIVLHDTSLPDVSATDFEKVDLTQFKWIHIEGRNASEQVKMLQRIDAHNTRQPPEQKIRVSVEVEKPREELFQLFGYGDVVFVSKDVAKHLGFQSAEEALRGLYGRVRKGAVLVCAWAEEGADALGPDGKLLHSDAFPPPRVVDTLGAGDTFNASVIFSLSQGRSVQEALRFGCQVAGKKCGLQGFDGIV

Row | IC50 (human KHK-C) | EC50 (HepG2 cells; [1]) | EC50 (HepG2 cells; [2]) | EC50 (HepG2 cells; [3]) | EC50 (HepG2 cells; [4]) | Structure (SMILES) | EC50 (HepG2 cells; Homo sapiens, HepG2, read-out: F1P 10% FBS EC50) | EC50 (HepG2 cells; Homo sapiens, HepG2, read-out: F1P 50% HP EC50)
1 | 15 nM | 207 nM | 104 nM | – | – | C[C@H]1[C@H](O)CN1c1nc(-c2ccc3c(c2)CC[C@]32COC(=O)N2)c2c(n1)C(F)(F)CC2 (single isomer, unassigned) [Example 475] | – | –
2 | 2.9 nM | – | 28.5 nM | 55.5 nM | – | COc1cc(-c2nc(N3C[C@@H](O)[C@@H]3C)nc3c2CCC3(F)F)cc2c1[C@H](NS(C)(=O)=O)CO2 (single isomer, unassigned) [Example 478] | – | –
3 | 1 nM | 6.3 nM | 4.8 nM | – | – | C[C@H]1[C@H](O)CN1c1nc(-c2ccc([C@@]3(N)CCOC3)cc2)c2c(n1)C(F)(F)CC2 (single isomer, unassigned) [Example 517] | – | –
4 | 4.9 nM | 114 nM | 30.8 nM | – | – | C[C@H]1[C@H](O)CN1c1nc(-c2cc(F)c3c(c2)CC[C@@H]3NS(C)(=O)=O)c2c(n1)C(F)(F)CC2 (single isomer, unassigned) [Example 526] | – | –
5 | 8 nM | 123 nM | 81.2 nM | – | – | C[C@H]1[C@H](O)CN1c1nc(-c2cc(F)c3c(c2)CC[C@H]3NS(C)(=O)=O)c2c(n1)C(F)(F)CC2 (single isomer, unassigned) [Example 527] | – | –
6 | 9 nM | – | – | 439 nM | 55.1 nM | COc1cc(-c2nc(N3C[C@@H](O)[C@@H]3C)nc3c2CCC3(F)F)cc2c1[C@H](NS(C)(=O)=O)CO2 (single isomer, unassigned) [Example 531] | – | –
7 | 7.3 nM | 56.9 nM | 15.3 nM | – | – | CC[C@H]1CNC(=O)c2ccc(-c3nc(N4C[C@@H](O)[C@@H]4C)nc4c3CCC4(F)F)cc2O1 (single isomer, unassigned) [Example 592] | – | –
8 | 7.5 nM | – | – | 58.7 nM | 22.8 nM | CC[C@@H]1CNC(=O)c2ccc(-c3nc(N4C[C@@H](O)[C@@H]4C)nc4c3CCC4(F)F)cc2O1 (single isomer, unassigned) [Example 593] | – | –
9 | 4.4 nM | 51 nM | 34.9 nM | – | – | C[C@H]1[C@H](O)CN1c1nc(-c2ccc3c(c2)O[C@@H](CF)CNC3=O)c2c(n1)C(F)(F)CC2 (single isomer, unassigned) [Example 595] | – | –
10 | 2 nM | 13.6 nM | 12.2 nM | – | – | C[C@H]1[C@H](O)CN1c1nc(-c2ccc3c(c2)O[C@H](CF)CNC3=O)c2c(n1)C(F)(F)CC2 (single isomer, unassigned) [Example 596] | – | –
11 | 1 nM | 54.7 nM | 10.7 nM | – | – | C[C@H]1CCN1c1nc(-c2ccc3c(c2)[C@@H](NS(C)(=O)=O)CC3)c2c(n1)C(F)(F)CC2 (single isomer, unassigned) [Example 609] | – | –
12 | 3.5 nM | – | – | 30.7 nM | 16.1 nM | C[C@H]1[C@H](O)CN1c1nc(-c2ccc3c(c2)[C@H](NS(C)(=O)=O)CO3)c2c(n1)C(F)(F)CC2 (single isomer, unassigned) [Example 615] | – | –
13 | 11.2 nM | – | – | 24 nM | 18.1 nM | C[C@H]1[C@H](O)CN1c1nc(-c2cccc([C@@H]3CCS(=O)(=O)N3)c2)c2c(n1)C(F)(F)CC2 (single isomer, unassigned) [Example 618] | – | –
14 | 1.5 nM | 46.1 nM | 8.8 nM | – | – | C[C@H]1[C@H](O)CN1c1nc(-c2ccc3c(c2)[C@@H](NS(C)(=O)=O)CC3)c2c(n1)C(F)(F)CC2 (single isomer, unassigned) [Example 622] | – | –
15 | 1.3 nM | 34.8 nM | 6.8 nM | – | – | C[C@H]1[C@H](O)CN1c1nc(-c2ccc3c(c2)[C@H](NS(C)(=O)=O)CC3)c2c(n1)C(F)(F)CC2 (single isomer, unassigned) [Example 623] | – | –
16 | – | 10.3 nM | 11 nM | – | – | C[C@H]1CCN1c1nc(-c2cn(C3CNC3)nn2)c2c(n1)C(F)(F)CC2 [Example 653, 4-[1-(azetidin-3-yl)triazol-4-yl]-7,7-difluoro-2-[(2S)-2-methylazetidin-1-yl]-5,6-dihydrocyclopenta[d]pyrimidine] | – | –
17 | – | 214 nM | 129 nM | – | – | C[C@H]1CCN1c1nc(-c2cccc(-n3ccnn3)c2)c2c(n1)C(F)(F)CC2 [Example 654, 7,7-difluoro-2-[(2S)-2-methylazetidin-1-yl]-4-[3-(triazol-1-yl)phenyl]-5,6-dihydrocyclopenta[d]pyrimidine] | – | –
18 | – | 236 nM | 46.2 nM | – | – | C[C@H]1CCN1c1nc(-c2ccc(-n3ccnn3)cc2)c2c(n1)C(F)(F)CC2 [Example 655, 7,7-difluoro-2-[(2S)-2-methylazetidin-1-yl]-4-[4-(triazol-1-yl)phenyl]-5,6-dihydrocyclopenta[d]pyrimidine] | – | –
19 | – | 26.7 nM | 19.8 nM | – | – | N#C[C@H]1CCN1c1nc(-c2ccc([C@@H](N)C(F)F)cc2)c2c(n1)C(F)(F)CC2 [Example 660, (2R)-1-[4-[4-[(1R)-1-amino-2,2-difluoro-ethyl]phenyl]-7,7-difluoro-5,6-dihydrocyclopenta[d]pyrimidin-2-yl]azetidine-2-carbonitrile] | – | –
20 | – | – | – | – | – | C[C@H]1[C@H](O)CN1c1nc(-c2ccc3c(c2)CCS3(=N)=O)c2c(n1)C(F)(F)CC2 (stereo partly drawn) [Example 664, (2S,3R)-1-[7,7-difluoro-4-(1-imino-1-oxo-2,3-dihydrobenzothiophen-5-yl)-5,6-dihydrocyclopenta[d]pyrimidin-2-yl]-2-methyl-azetidin-3-ol] | 80.2 nM | 78.6 nM
21 | – | 88.4 nM | 52.7 nM | – | – | C[C@H]1[C@H](O)CN1c1nc(-c2ccc3c(c2)S(=O)(=O)CC3NS(C)(=O)=O)c2c(n1)C(F)(F)CC2 (stereo partly drawn) [Example 665, N-[6-[7,7-difluoro-2-[(2S,3R)-3-hydroxy-2-methyl-azetidin-1-yl]-5,6-dihydrocyclopenta[d]pyrimidin-4-yl]-1,1-dioxo-2,3-dihydrobenzothiophen-3-yl]methanesulfonamide] | – | –
22 | – | 75.8 nM | 20.3 nM | – | – | C[C@H]1[C@H](O)CN1c1nc(-c2cccc(N=S3(=O)CCOCC3)c2)c2c(n1)C(F)(F)CC2 [Example 673, (2S,3R)-1-[7,7-difluoro-4-[3-[(4-oxo-1,4-oxathian-4-ylidene)amino]phenyl]-5,6-dihydrocyclopenta[d]pyrimidin-2-yl]-2-methyl-azetidin-3-ol] | – | –
23 | – | 74.1 nM | 67.9 nM | – | – | C[C@H]1[C@H](O)CN1c1nc(-c2ccc3c(c2)S(C)(=O)=NC3)c2c(n1)C(F)(F)CC2 (stereo partly drawn) [Example 805, (2S,3R)-1-[7,7-difluoro-4-(1-methyl-1-oxo-3H-1,2-benzothiazol-6-yl)-5,6-dihydrocyclopenta[d]pyrimidin-2-yl]-2-methyl-azetidin-3-ol] | – | –
24 | – | 155 nM | 91.6 nM | – | – | COC(=O)N[C@H]1COc2cc(-c3nc(N4C[C@@H](O)[C@@H]4C)nc4c3CCC4(F)F)ccc21 [Example 814, Methyl N-[(3R)-6-[7,7-difluoro-2-[(2S,3R)-3-hydroxy-2-methyl-azetidin-1-yl]-5,6-dihydrocyclopenta[d]pyrimidin-4-yl]-2,3-dihydrobenzofuran-3-yl]carbamate] | – | –
25 | – | 138 nM | 64.3 nM | – | – | COC(=O)N[C@@H]1COc2cc(-c3nc(N4C[C@@H](O)[C@@H]4C)nc4c3CCC4(F)F)ccc21 [Example 815, Methyl N-[(3S)-6-[7,7-difluoro-2-[(2S,3R)-3-hydroxy-2-methyl-azetidin-1-yl]-5,6-dihydrocyclopenta[d]pyrimidin-4-yl]-2,3-dihydrobenzofuran-3-yl]carbamate] | – | –
